Results as given in patent publication US10131664B2 (Celgene Quanticel Research, Inc., priority 2013, dated 2018).
Like-named read-outs stand apart in the source and are kept apart here.

Experiments:
full-length human LSD1 = full-length human LSD1 (Homo sapiens (Human), UniProt O60341); test: In vitro enzyme inhibition assay LSD-1 (TR-FRET); format: biochemical; details: TR-FRET, 0.1 nM LSD1, 50 nM H3K4me1-biotin peptide, 2 μM FAD, pH7.3; read-out: LSD1 IC50
Procedure: This assay determines the ability of a test compound to inhibit LSD1 demethylase activity.
The enzymatic assay of LSD1 activity is based on Time Resolved-Fluorescence Resonance Energy Transfer (TR-FRET) detection.
The ability of the compounds disclosed herein to inhibit LSD1 activity was quantified and the respective IC50 value was determined. Table 5 provides the IC50 values of various substituted heterocyclic compounds disclosed herein.

THP-1 (AML) cells = test: LSD1 CD11b cellular assay (flow cytometry); format: cell-based; details: CD11b expression in THP-1 (AML) cells, flow cytometry, 4 days incubation, read-out: Cellular IC50
Outline: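 THP-1 AML cells treated with serially diluted compound (0.2% DMSO final) for 4 days at 37 °C, 5% CO2. CD11b expression measured by flow cytometry with DAPI staining; IC50 derived from percent CD11b-positive cells versus inhibitor concentration.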

Structure (SMILES) | IC50 (full-length human LSD1) [nM] | IC50 (THP-1 (AML) cells; Homo sapiens, 96 h) [nM] | IC50 (THP-1 (AML) cells) [nM]
Cn1nnc2cc(-c3cnc(N4CCC(N)CC4)nc3-c3ccc(C#N)c(F)c3)ccc21 [Example 96, 4-[2-(4-aminopiperidin-1-yl)-5-(1-methylbenzotriazol-5-yl)pyrimidin-4-yl]-2-fluorobenzonitrile] | < 100 | < 100 | 
Cn1nncc1C#Cc1cnc(N2CCC(N)CC2)nc1-c1ccc(C#N)c(F)c1 [Example 98] | < 100 | 100 to 1000 | 
Cn1cc(C#Cc2cnc(N3CCC(N)CC3)nc2-c2ccc(C#N)c(F)c2)nn1 [Example 100] | < 100 | < 100 | 
Cn1ncc2cc(-c3cnc(N4CCC(N)C(O)C4)nc3-c3ccc(C#N)c(F)c3)ccc21 (stereo not drawn) [Example 101, 4-[2-(4-amino-3-hydroxypiperidin-1-yl)-5-(1-methylindazol-5-yl)pyrimidin-4-yl]-2-fluorobenzonitrile] | < 100 | < 100 | 
N#Cc1ccc(-c2nc(N3CCC(N)C(O)C3)ncc2-c2cnn(CC(F)(F)F)c2)cc1F (stereo not drawn) [Example 103, 4-[2-(4-amino-3-hydroxypiperidin-1-yl)-5-[1-(2,2,2-trifluoroethyl)pyrazol-4-yl]pyrimidin-4-yl]-2-fluorobenzonitrile] | < 100 | 100 to 1000 | 
Cn1ncc2cc(-c3cnc(N4CCC(N)C(O)C4)nc3-c3ccc(C#N)c(F)c3)ccc21 (stereo not drawn) [Example 104, 4-[2-(4-amino-3-hydroxypiperidin-1-yl)-5-(1-methylindazol-5-yl)pyrimidin-4-yl]-2-fluorobenzonitrile] | < 100 |  | < 100
Cn1nnc2cc(-c3cnc(N4CCC(N)CC4)nc3-c3ccc(C#N)c(F)c3)c(F)cc21 [Example 105, 4-[2-(4-aminopiperidin-1-yl)-5-(6-fluoro-1-methylbenzotriazol-5-yl)pyrimidin-4-yl]-2-fluorobenzonitrile] | < 100 | < 100 | 
Cn1nccc1C#Cc1cnc(N2CCC(N)CC2)nc1-c1ccc(C#N)c(F)c1 [Example 106, 4-[2-(4-aminopiperidin-1-yl)-5-[2-(2-methylpyrazol-3-yl)ethynyl]pyrimidin-4-yl]-2-fluorobenzonitrile] | < 100 | 100 to 1000 | 
Cn1cc2cc(-c3cnc(N4CCC(N)C(O)C4)nc3-c3ccc(C#N)c(F)c3)ccc2n1 (stereo not drawn) [Example 107, 4-[2-(4-amino-3-hydroxypiperidin-1-yl)-5-(2-methylindazol-5-yl)pyrimidin-4-yl]-2-fluorobenzonitrile] | < 100 | < 100 | 
Cn1cc2cc(-c3cnc(N4CCCC(N)C4)nc3-c3ccc(C#N)c(F)c3)ccc2n1 (stereo not drawn) [Example 108, 4-[2-(3-aminopiperidin-1-yl)-5-(2-methylindazol-5-yl)pyrimidin-4-yl]-2-fluorobenzonitrile] | < 100 | < 100 | 
Cn1cc2cc(-c3cnc(N4CCCNCC4)nc3-c3ccc(C#N)c(F)c3)ccc2n1 [Example 110, 4-[2-(1,4-diazepan-1-yl)-5-(2-methylindazol-5-yl)pyrimidin-4-yl]-2-fluorobenzonitrile] | < 100 | < 100 | 
Cc1ccc(-c2cnc(N3CCC4CNCC4CC3)nc2-c2ccc(C#N)cc2)cn1 (stereo not drawn) [Example 114, 4-[2-(2,3,3a,4,5,7,8,8a-octahydro-1H-pyrrolo[3,4-d]azepin-6-yl)-5-(6-methylpyridin-3-yl)pyrimidin-4-yl]benzonitrile] | < 100 | 100 to 1000 | 
Cn1ncc2cc(-c3cnc(N4CCC5CNCC5C4)nc3-c3ccc(C#N)cc3)ccc21 (stereo not drawn) [Example 115, 4-[2-(1,2,3,3a,4,6,7,7a-octahydropyrrolo[3,4-c]pyridin-5-yl)-5-(1-methylindazol-5-yl)pyrimidin-4-yl]benzonitrile] | < 100 | < 100 | 
Cn1ncc2cc(-c3cnc(N4CCC(N)CC4)nc3-c3ccc(C#N)cc3)ccc21 [Example 116, 4-[2-(4-aminopiperidin-1-yl)-5-(1-methylindazol-5-yl)pyrimidin-4-yl]benzonitrile] | < 100 | < 100 | 
Cc1ccc(-c2cnc(N3CC4CNCC(C4)C3)nc2-c2ccc(C#N)cc2)cc1 [Example 119, 4-[2-(3,7-diazabicyclo[3.3.1]nonan-3-yl)-5-(4-methylphenyl)pyrimidin-4-yl]benzonitrile] | < 100 | 100 to 1000 | 
Cn1ncc2cc(-c3cnc(N4CC5CNCC(C5)C4)nc3-c3ccc(C#N)cc3)ccc21 [Example 120, 4-[2-(3,7-diazabicyclo[3.3.1]nonan-3-yl)-5-(1-methylindazol-5-yl)pyrimidin-4-yl]benzonitrile] | < 100 | 100 to 1000 | 
Cn1cnc2cc(-c3cnc(N4CCC(N)CC4)nc3-c3ccc(C#N)cc3)ccc21 [Example 122, 4-[2-(4-aminopiperidin-1-yl)-5-(1-methylbenzimidazol-5-yl)pyrimidin-4-yl]benzonitrile] | < 100 | < 100 | 
COc1ccc(-c2cnc(N3CCC(N)CC3)nc2-c2ccc(C#N)cc2)cn1 [Example 123, 4-[2-(4-aminopiperidin-1-yl)-5-(6-methoxypyridin-3-yl)pyrimidin-4-yl]benzonitrile] | < 100 | < 100 | 
N#Cc1ccc(-c2nc(N3CCC(N)CC3)ncc2-c2ccc(OCC3CC3)nc2)cc1 [Example 124, 4-[2-(4-aminopiperidin-1-yl)-5-[6-(cyclopropylmethoxy)pyridin-3-yl]pyrimidin-4-yl]benzonitrile] | < 100 | < 100 | 
Cn1cc2ccc(-c3cnc(N4CCC(N)CC4)nc3-c3ccc(C#N)cc3)cc2n1 [Example 129, 4-[2-(4-aminopiperidin-1-yl)-5-(2-methylindazol-6-yl)pyrimidin-4-yl]benzonitrile] | < 100 | < 100 | 
Cn1cnc2cc(-c3cnc(N4CCC5CNCC5CC4)nc3-c3ccc(C#N)cc3)c(F)c(F)c21 (stereo not drawn) [Example 130] | < 100 | < 100 | 
N#Cc1ccc(-c2nc(N3CCC(N)CC3)ncc2-c2ccc(OCC(F)(F)F)nc2)cc1 [Example 131, 4-[2-(4-aminopiperidin-1-yl)-5-[6-(2,2,2-trifluoroethoxy)pyridin-3-yl]pyrimidin-4-yl]benzonitrile] | < 100 | 100 to 1000 | 

Other lines, results leading:

IC50 (full-length human LSD1) [nM] | IC50 (THP-1 (AML) cells; Homo sapiens, 96 h) [nM] | IC50 (THP-1 (AML) cells) [nM] | Structure (SMILES)
< 100 | 100 to 1000 |  | N#Cc1ccc(-c2nc(N3CCC(N)CC3)ncc2C#CC2(O)CCOCC2)cc1F [Example 97, 4-[2-(4-aminopiperidin-1-yl)-5-[2-(4-hydroxyoxan-4-yl)ethynyl]pyrimidin-4-yl]-2-fluorobenzonitrile]
< 100 | < 100 |  | Cn1ccc(C#Cc2cnc(N3CCC(N)CC3)nc2-c2ccc(C#N)c(F)c2)n1 [Example 99, 4-[2-(4-aminopiperidin-1-yl)-5-[2-(1-methylpyrazol-3-yl)ethynyl]pyrimidin-4-yl]-2-fluorobenzonitrile]
< 100 | < 100 |  | Cn1cc(C#Cc2cnc(N3CCC(N)CC3)nc2-c2ccc(C#N)c(F)c2)cn1 [Example 102, 4-[2-(4-aminopiperidin-1-yl)-5-[2-(1-methylpyrazol-4-yl)ethynyl]pyrimidin-4-yl]-2-fluorobenzonitrile]
< 100 | 100 to 1000 |  | Cn1cc2cc(-c3cnc(N4CCNCC4)nc3-c3ccc(C#N)c(F)c3)ccc2n1 [Example 109, 2-fluoro-4-[5-(2-methylindazol-5-yl)-2-piperazin-1-ylpyrimidin-4-yl]benzonitrile]
< 100 | < 100 |  | Cn1ncc2cc(-c3cnc(N4CCC(N)C(F)C4)nc3-c3ccc(C#N)c(F)c3)ccc21 (stereo not drawn) [Example 111, 4-[2-(4-amino-3-fluoropiperidin-1-yl)-5-(1-methylindazol-5-yl)pyrimidin-4-yl]-2-fluorobenzonitrile]
< 100 | < 100 |  | Cn1cc2cc(-c3cnc(N4CCC(N)C(F)C4)nc3-c3ccc(C#N)c(F)c3)ccc2n1 (stereo not drawn) [Example 112, 4-[2-(4-amino-3-fluoropiperidin-1-yl)-5-(2-methylindazol-5-yl)pyrimidin-4-yl]-2-fluorobenzonitrile]
< 100 | 100 to 1000 |  | Cc1ccc(-c2cnc(N3CCC4(CC3)CNC4)nc2-c2ccc(C#N)cc2)cc1 [Example 113, 4-[2-(2,7-diazaspiro[3.5]nonan-7-yl)-5-(4-methylphenyl)pyrimidin-4-yl]benzonitrile]
< 100 | < 100 |  | N#Cc1ccc(-c2nc(N3CCC4CNCC4CC3)ncc2-c2ccc3cn[nH]c3c2)cc1 (stereo not drawn) [Example 117, 4-[2-(2,3,3a,4,5,7,8,8a-octahydro-1H-pyrrolo[3,4-d]azepin-6-yl)-5-(1H-indazol-6-yl)pyrimidin-4-yl]benzonitrile]
< 100 | < 100 |  | Cn1cnc2cc(-c3cnc(N4CCC(N)CC4)nc3-c3ccc(C#N)cc3)c(F)cc21 [Example 125, 4-[2-(4-aminopiperidin-1-yl)-5-(6-fluoro-1-methylbenzimidazol-5-yl)pyrimidin-4-yl]benzonitrile]
< 100 | < 100 |  | Cn1cnc2cc(-c3cnc(N4CCC(N)CC4)nc3-c3ccc(C#N)cc3)c(F)c(F)c21 [Example 126, 4-[2-(4-aminopiperidin-1-yl)-5-(6,7-difluoro-1-methylbenzimidazol-5-yl)pyrimidin-4-yl]benzonitrile]
< 100 | < 100 |  | Cn1cc2cc(-c3cnc(N4CCC(N)CC4)nc3-c3ccc(C#N)cc3)ccc2n1 [Example 128, 4-[2-(4-aminopiperidin-1-yl)-5-(2-methylindazol-5-yl)pyrimidin-4-yl]benzonitrile]
